# Test system: luciferase reporter construct containing a UGA premature termination codon
# Assay: cell-based luciferase reporter assay (nonsense suppression / readthrough)
# Design: key: *****: both extremely high potency and extremely high efficacy of protein synthesis; ****: extremely high potency of protein synthesis and very high efficacy; ****: very high potency of protein synthesis and extremely high efficacy; ***: both very high potency and very high efficacy of protein synthesis; **: very high potency of protein synthesis and significant efficacy; **: significant potency of protein synthesis and very high efficacy; *: significant potency and efficacy of protein synthesis
# Details: ranking combining potency and efficacy of protein synthesis; UGA luciferase reporter stably transfected in 293T Human Embryonic Kidney cells
# Protocol: Activity measurements in Table I were performed in a cell-based luciferase reporter assay (as described in Section 4.2) comprising a luciferase reporter construct containing a UGA premature termination codon that was stably transfected in 293T Human Embryonic Kidney cells. A small molecule (3-[3-(4-Isopropyl-phenyl)-2,5-dioxoimidazolidin-1-yl]-benzoic acid) known to allow readthrough of premature termination codons, was used as an internal standard. Activity measurements are based on the qualitative relation between the minimum concentration of compound required to produce a given protein in a cell (potency) and the maximum amount of protein produced by the cell (efficacy). Potency and efficacy activities are ranked as either extremely high, very high or significant.
# The test compounds identified in the nonsense suppression assay (for convenience referred to herein as a “lead” compound) can be tested for biological activity using host cells containing or engineered to contain the target RNA element coupled to a functional readout system. For example, the lead compound can be tested in a host cell engineered to contain the RNA with the premature translation termination codon controlling the expression of a reporter gene. In this example, the lead compounds are assayed in the presence or absence of the RNA with the premature translation termination codon. Compounds that modulate premature translation termination and/or nonsense-mediated mRNA decay in vivo will result in increased expression of the full-length gene, i.e., past the premature termination codon. Alternatively, a phenotypic or physiological readout can be used to assess activity of the target RNA with the premature translation termination codon in the presence and absence of the lead compound. Both the in vitro and in vivo nonsense suppression assays used herein and as described in International Patent Publication WO 01/44516, which is incorporated by reference in its entirety, can be used to identify lead compounds can also be used to determine an EC50 for the lead compounds.
# A stable cell line harboring the […] nonsense-containing luciferase gene is treated with a test compound. Cells are grown in standard medium supplemented with 1% penicillin-streptomycin (P/S) and 10% fetal bovine serum (FBS) to 70% confluency and split 1:1 the day before treatment. The next day, cells are trypsinized and 40,000 cells are added to each well of a 96-well tissue culture dish. Serial dilutions of each compound are prepared to generate a six-point dose response curve spanning 2 logs ([…]). The final concentration of the DMSO solvent remains constant at 1% in each well. Cells treated with 1% DMSO serve as the background standard, and cells treated with gentamicin serve as a positive control.
row,SMILES,Activity
1,"O=C(O)c1cccc(N2CCN(c3ccc(I)cc3)C2=O)c1 [Compound 43, 3-[3-(4-Iodo-phenyl)-2-oxo-imidazolidin-1-yl]-benzoic acid]",*****
2,"O=C(O)c1cc(N2CCN(c3ccc(C(F)(F)F)cc3)C2=O)ccc1Cl [Compound 54, 2-Chloro-5-[2-oxo-3-(4-trifluoromethyl-phenyl)-imidazolidin-1-yl]-benzoic acid]",****
3,"COc1ccc(N2CCN(c3cccc(C(=O)O)c3)C2=O)cc1 [Compound 49, 3-[3-(4-Methoxy-phenyl)-2-oxo-imidazolidin-1-yl]-benzoic acid]",****
4,"CC(C)c1ccc(NC(=O)Nc2cccc(C(=O)O)c2)cc1 [Compound 8, 3-[3-(4-isopropyl-phenyl)-ureido]-benzoic acid]",***
5,"O=C(O)c1cccc(N2CCN(c3cccc(OC(F)(F)F)c3)C2=O)c1 [Compound 64, 3-[2-Oxo-3-(3-trifluoromethoxy-phenyl)-imidazolidin-1-yl]-benzoic acid]",****
6,"CC(C)c1ccc(N2CCCN(c3cccc(C(=O)O)c3)S2(=O)=O)cc1 [Compound 7, 3-[6-(4-isopropyl-phenyl)-1,1-dioxo-1l6-[1,2,6]-thiadiazinan-2-yl]-benzoic acid]",*
7,"O=C(Nc1ccc(Br)cc1)Nc1cccc(C(=O)O)c1 [Compound 22, 3-[3-(4-bromo-phenyl)-ureido]-benzoic acid]",*
8,"CC(C)c1ccc(N(CC(=O)[O-])C(=O)Nc2cccc(C(=O)[O-])c2)cc1.[Na+].[Na+] [Compound 4, 3-[3-carboxymethyl-3-(4-isopropyl-phenyl)-ureido]-benzoic acid disodium salt]",***
9,"O=C(O)c1cccc(N2CC(=O)N(c3ccc(Oc4ccccc4)cc3)C2=O)c1 [Compound 12, 3-[2,4-dioxo-3-(4-phenoxy-phenyl)-imidazolidin-1-yl]-benzoic acid]",*
10,"O=C(O)c1cccc(N2CCN(c3ccc(F)c(C(F)(F)F)c3)C2=O)c1 [Compound 63, 3-[3-(4-Fluoro-3-trifluoromethyl-phenyl)-2-oxo-imidazolidin-1-yl]-benzoic acid]",****
11,"O=C(O)c1cccc(N2CCN(c3ccc(F)cc3F)C2=O)c1 [Compound 75, 3-[3-(2,4-Difluoro-phenyl)-2-oxo-imidazolidin-1-yl]-benzoic acid]",*
12,"CC1(C)CN(c2ccc(OC(F)(F)F)cc2)C(=O)N1c1cccc(C(=O)O)c1 [Compound 62, 3-[5,5-Dimethyl-2-oxo-3-(4-trifluoromethoxy-phenyl)-imidazolidin-1-yl]-benzoic acid]",*
13,"CC(C)c1cccc(N2CCN(c3cccc(C(=O)O)c3)C2=O)c1 [Compound 36, 3-[3-(3-Isopropyl-phenyl)-2-oxo-imidazolidin-1-yl]-benzoic acid]",****
14,"CN1CCN(C(=O)COc2ccc(N3CCN(c4cccc(C(=O)O)c4)C3=O)cc2)CC1 [Compound 78, 3-(3-{4-[2-(4-Methyl-piperazin-1-yl)-2-oxo-ethoxy]-phenyl}-2-oxo-imidazolidin-1-yl)-benzoic acid]",*
15,"O=C(O)c1cccc(N2CCN(c3ccc(C(F)(F)F)cn3)C2=O)c1 [Compound 72, 3-[2-Oxo-3-(5-trifluoromethyl-pyridin-2-yl)-imidazolidin-1-yl]-benzoic acid]",****
16,"CC(C)Oc1ccc(N2CCN(c3cccc(C(=O)O)c3)C2=O)cc1 [Compound 40, 3-[3-(4-Isopropoxy-phenyl)-2-oxo-imidazolidin-1-yl]-benzoic acid]",*****
17,"O=C(O)c1cccc(N2CCN(c3ccccc3F)C2=O)c1 [Compound 68, 3-[3-(2-Fluoro-phenyl)-2-oxo-imidazolidin-1-yl]-benzoic acid]",***
18,"O=C(O)c1cccc(N2CCN(c3cc(F)ccc3F)C2=O)c1 [Compound 67, 3-[3-(2,5-Difluoro-phenyl)-2-oxo-imidazolidin-1-yl]-benzoic acid]",**
19,"O=C(O)c1cccc(N2CC(=O)N(c3cccc(Cl)c3Cl)C2=O)c1 [Compound 24, 3-[3-(2,3-dichloro-phenyl)-2,4-dioxo-imidazolidin-1yl]-benzoic acid]",*

row,SMILES,Activity
1,"COc1ccc(C(=O)O)cc1N1CCN(c2ccc(C(F)(F)F)cc2)C1=O [Compound 52, 4-Methoxy-3-[2-oxo-3-(4-trifluoromethyl-phenyl)-imidazolidin-1-yl]-benzoic acid]",*
2,"O=C(O)c1cccc(N2CCN(c3ccc(N4CCC(N5CCCCC5)CC4)cc3)C2=O)c1 [Compound 81, 3-[3-(4-[1,4′]Bipiperidinyl-1′-yl-phenyl)-2-oxo-imidazolidin-1-yl]-benzoic acid]",*
3,"CC(C)c1ccc(-n2ccn(-c3cccc(C(=O)O)c3)c2=S)cc1 [Compound 37, 3-[3-(4-Isopropyl-phenyl)-2-thioxo-2,3-dihydro-imidazol-1-yl]-benzoic acid]",*
4,"O=C(O)c1cccc(N2CCN(c3ccc(OCC(=O)N4CCN(c5ccccc5)CC4)cc3)C2=O)c1 [Compound 61, 3-(2-Oxo-3-{4-[2-oxo-2-(phenyl-piperazin-1-yl)-ethoxy]-phenyl}-imidazolidin-1-yl)-benzoic acid]",*
5,"O=C(O)c1ccc(F)c(N2CCN(c3ccc(C(F)(F)F)cc3)C2=O)c1 [Compound 55, 4-Fluoro-3-[2-oxo-3-(4-trifluoromethyl-phenyl)-imidazolidin-1-yl]-benzoic acid]",*
6,"O=C(O)c1cccc(N2CCN(c3ccc(OC(F)(F)F)cc3)C2=O)c1 [Compound 38, 3-[2-Oxo-3-(4-trifluoro-methoxy-phenyl)-imidazolidin-1-yl]-benzoic acid]",*****
7,"CC(C)c1ccc(N2CCN(c3cccc(C(=O)O)c3)C2=O)cc1 [Compound 34, 3-[3-(4-Isopropyl-phenyl)-2-oxo-imidazolidin-1-yl]-benzoic acid]",*****
8,"O=C(O)c1cccc(N2CCN(c3ccc(F)c(F)c3)C2=O)c1 [Compound 65, 3-[3-(3,4-Difluoro-phenyl)-2-oxo-imidazolidin-1-yl]-benzoic acid]",*****
9,"CN1CCN(c2ccc(N3CCN(c4cccc(C(=O)O)c4)C3=O)cc2)CC1 [Compound 76, 3-{3-[4-(4-Methyl-piperazin-1-yl)-phenyl]-2-oxo-imidazolidin-1-yl}-benzoic acid]",*
10,"O=C(O)c1cccc(N2CCN(c3ccc4c(c3)OC(F)(F)C(F)(F)O4)C2=O)c1 [Compound 51, 3-[2-Oxo-3-(2,2,3,3-tetrafluoro-2,3-dihydro-benzo[1,4]dioxin-6-yl)-imidazolidin-1-yl]-benzoic acid]",*****
11,"O=C(O)c1cccc(N2C(=O)CN(c3ccc(I)cc3)C2=O)c1 [Compound 23, 3-[3-(4-iodo-phenyl)-2,5-dioxo-imidazolidin-1-yl]-benzoic acid]",***
12,"O=C(O)c1cccc(N2CCN(c3ccc(F)cc3)C2=O)c1 [Compound 70, 3-[3-(4-Fluoro-phenyl)-2-oxo-imidazolidin-1-yl]-benzoic acid]",*****
13,O=C(O)c1cccc(N2C(=O)CN(c3ccc(-c4ccccc4)cc3)C2=O)c1 [Compound 2],***
14,"Cc1ccc(C(=O)O)cc1N1CCN(c2ccc(C(F)(F)F)cc2)C1=O [Compound 80, 4-Methyl-3-[2-oxo-3-(4-trifluoromethyl-phenyl)-imidazolidin-1-yl]-benzoic acid]",*
15,"O=C(O)c1cccc(N2CCN(c3ccc4c(c3)OCCO4)C2=O)c1 [Compound 42, 3-[3-(2,3-Dihydro-benzo[1,4]dioxin-6-yl)-2-oxo-imidazolidin-1-yl]-benzoic acid]",*****
16,"O=C(O)c1cccc(N2C(=O)CN(c3ccc(Br)cc3)C2=O)c1 [Compound 29, 3-[3-(4-Bromo-phenyl)-2,5-dioxo-imidazolidin-1-yl]-benzoic acid]",*
17,"Cc1ccc(N2CCN(c3cccc(C(=O)O)c3)C2=O)cc1 [Compound 48, 3-(2-Oxo-3-p-tolyl-imidazolidin-1-yl)-benzoic acid]",*****
18,"O=C(O)c1cccc(N2CCN(c3cccc(F)c3)C2=O)c1 [Compound 69, 3-[3-(3-Fluoro-phenyl)-2-oxo-imidazolidin-1-yl]-benzoic acid]",*****

# From US8334313B2, “Ureido substituted benzoic acid compounds and their use for nonsense suppression and the treatment of disease” (PTC Therapeutics, Inc., priority 2002, dated 2012)
